Tested on: murine model of severe spinal cord injury (SCI)
Test: Hindlimb locomotor evaluation after SCI (BMS, footprint analysis)
Assay type: in vivo, mouse
Conditions: three weeks post-injury
Method: All experiments were conducted at the Simpson Querrey Institute at Northwestern University. 182 CD1 mice (Charles River) were subjects of this study (N=38 Sham, N=38 IKVAV PA2 alone, N=38 IKVAV PA2+FGF2 PA1, N=38 IKVAV PA2+FGF2 PA2, N=12 IKVAV PA1, N=12 Backbone PA, N=6 IKVAV PA4). The age of animals used in the study was in the range of 10-16 weeks. 8 independent in vivo experiments were carried out (injury+PA injection) and each of the 8 experiments had animals of the exact same age which were injected with at least the 4 main treatment groups: Sham, IKVAV PA2 alone, IKVAV PA2+FGF2 PA1, and IKVAV PA2+FGF2 PA2. Animals were anesthetized using 2.5% isoflurane gas with oxygen. […]
Mice that passed this inclusion criterion were randomized into experimental groups for PA injection and were thereafter evaluated blind to their experimental condition.
PAs (dissolved in sterile NaCl 0.9% solution at 1 wt %) were injected 24 h after SCI using a glass capillary micropipette (Sutter Instruments, Novato, CA) (outer diameter, 100 m) coated with Sigmacote (Sigma-Aldrich) to reduce surface tension as described elsewhere (19). […] The micropipette was lowered to a depth of 750 m measured from the dorsal surface of the cord, and 4-6 μL of the diluted amphiphile solution was injected at 1 L/min. […]
The motor function was evaluated with the locomotor open-field rating scale on the Basso Mouse Scale (BMS). […]

Substance: C16-A2G2E4GIKVAV [IKVAV PA2]
- BMS open field locomotor score: 4.3±0.5

Source: US20240325548A1, “DYNAMIC BIOACTIVE SCAFFOLDS AND THERAPEUTIC USES THEREOF AFTER CNS INJURY” (Northwestern University, priority 2021, published 2024)
